Reference: patent US6670377B1, “Quinoline derivatives, having in particular antiviral properties, preparation and biological applications thereof” (Centre National de la Recherche, priority 1997, dated 2003)
“Also recorded” adds a separate entry of the source.

Columns and labels:
[1] = system: HIV-1; assay: late stages of HIV-1 replication in TNF-activated ACH2 cells, p24 ELISA; format: cell-based; details: 24 hours; for effect on the production of viral particles (in words): ACH2 cells
Description: (§1) The compounds according to the present invention were tested on the late stages of the replication of HIV-1. The test is as follows: The ACH2 cells which integrated HIV-1 viral DNA were used. […] When the cells are used in the presence of TNF, they express the HIV virus from the integrated provirus. The production of viral particles is detected 24 hours after activation. The viral load in the supernatant is quantified by the ELISA p24 test.

[2] = target: EcoRI restriction enzyme (Escherichia coli, UniProt P00642); assay: inhibition of cleavage of linearized pSP65 plasmid by EcoRI; format: biochemical; details: 4 hours, 0.1 units EcoRI
Chain of EcoRI restriction enzyme (P00642 whole entry): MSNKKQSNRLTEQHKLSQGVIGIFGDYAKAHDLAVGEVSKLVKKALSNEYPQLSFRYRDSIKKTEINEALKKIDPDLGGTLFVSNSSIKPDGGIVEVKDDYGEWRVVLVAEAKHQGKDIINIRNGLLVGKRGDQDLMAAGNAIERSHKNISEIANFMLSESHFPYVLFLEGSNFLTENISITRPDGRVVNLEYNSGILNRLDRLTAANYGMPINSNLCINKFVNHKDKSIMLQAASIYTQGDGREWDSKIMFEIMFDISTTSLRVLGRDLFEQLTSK
Description: The catalytic site of HIV-1 integrase is very close to that of the EcoRI restriction enzyme. The compounds which block both proteins are therefore catalytic inhibitors of integrase.
The linearized plasmid is incubated for 4 hours in the presence of 0.1 units of the EcoRI enzyme. The enzyme activity is monitored by the appearance of the cleavage products on 1.2% agarose gel.

[3] = target: T1, HIV-1 integrase (Human immunodeficiency virus type 1 group M subtype B, UniProt P04585); details: three tests: endonucleolytic cleavage, strand transfer, disintegration
Description: 1—The endonucleolytic activity of the protein is tested on a double-strand oligonucleotide of 21 base pairs, radiolabelled at the 5′ end. The activity of the integrase is expressed by elimination of the dinucleotide at the 3′ end.
2—The strand transfer test is carried out with a double-strand oligonucleotide of 21 base pairs mimicking the end of the viral DNA, the 3′ terminal dinucleotide of which has been supressed. The activity of the protein is expressed by the covalent insertion of this oligonucleotide in a homologous oligonucleotide.
3—The disintegration test is carried out with a substrate mimicking the structure of the integrated viral DNA. The quantity of DNA excised by the integrase is measured. This last test only quantifies the catalytic activity of the protein excluding its fixation activity on the DNA.

[4] = system: HIV-1; assay: HIV-1 replication in CEM cells, infectious virus load on Hela β-gal CD4+ cells; format: cell-based; details: read-out: β-gal activity, 50% effectiveness on production of viral particles, 72 hours, HeLa β-gal colorimetric test, global antiviral effect
Description: This is quantified in two of the following ways:

[5] = system: CEM cells; assay: toxicity on CEM cells, MTT biotransformation test; format: cell-based
Description: (§2) The toxicity of the compounds is tested by a biotransformation test of MTT to formazan by cellular mitochondrial dehydrogenases.

[6] = target: T2, reverse transcriptase enzyme of the HIV-1 virus (Human immunodeficiency virus type 1 group M subtype B, UniProt P04585); assay: reverse transcriptase activity of lysed viral particles on polyrC/oligo(dG); format: biochemical; details: polyrC matrix, oligo (dG) primer
T2 construct: endogenous in cells; host or cells: viral particles concentrated from the supernatant of a CEM cell culture, lysed in non-ionic detergent
Description: The specificity of the compounds according to the invention for integrase is estimated by an activity test on the reverse transcriptase enzyme of the HIV-1 virus. This test is carried out in the following manner: The viral particles of a supernatant of a CEM cell culture (established lymphocyte line) are concentrated by centrifugation at 30,000 RPM. These viral particles are lysed in a non-ionic detergent and their reverse transcriptase activity is tested on a substrate formed from a hybridized oligo (dG) primer on a polyrC matrix. In the presence of radiolabelled nucleotide dG, the transcriptase activity is expressed by the formation of labelled polynucleotide which can be precipitated in trichloroacetic acid. This confirms that a dideoxynucleotide ddG inhibits the formation of acid precipitatable.

[7] = system: ACH2 cells; assay: toxicity on ACH2 cells, MTT biotransformation test; format: cell-based
Description: as §2, §1

[8] = system: HIV-1; details: 72 hours, ELISA p24
Description: The activity test consists of putting the cells of an established lymphocyte line, CEM cells, in contact with a supernatant of infected cells containing the infectious virions. The test is carried out in the following manner: The CEM cells, cultured in suspension in RPMI medium supplemented with 10% of foetal calf serum, are infected with a viral supernatant with a multiplicity of infection of 0.5. After 2 hours of infection, the cells are washed twice with RPMI medium in a manner so as to eliminate the residual viral particles. Finally, the cells are replaced in RPMI medium containing the compound according to the invention. The viral load is evaluated after 72 hours of culture. This is quantified in two of the following ways:
1) The quantity of viral protein p24 is determined by an ELISA test.

[9] = target: T1, HIV-1 integrase; assay: strand transfer test of HIV-1 integrase; format: biochemical; details: read-out: strand transfer, concentration necessary to block 50% of the activity of HIV-1 integrase
[10] = target: T1, HIV-1 integrase; assay: endonucleolytic cleavage test of HIV-1 integrase (21 bp oligonucleotide); format: biochemical; details: read-out: endonucleolytic cleavage, concentration necessary to block 50% of the activity of HIV-1 integrase
[11] = target: T1, HIV-1 integrase; assay: disintegration test of HIV-1 integrase; format: biochemical; details: read-out: disintegration, concentration necessary to block 50% of the activity of HIV-1 integrase

| SMILES | effect on the production of viral particles (in words) ([1]; above 50 μM) | effect on the production of viral particles (in words) ([1]; concentrations up to 100 μM) | IC50 ([1]; Human immunodeficiency virus 1, ACH-2, ACH2 cells activated by TNF, effect on the late stages, read-out: p24 test, inhibitory 50% concentration) [nM] | cleavage by EcoRI (in words) [2] | anti-integrase activity in the tests for in vitro activity (in words) [3] | EC50 [4] [nM] | MTT, toxicity by biotransformation [5] [µM] | toxicity according to the MTT test (in words) ([5]; up to 100 μM, maximum concentration tested) | reverse transcription inhibition (in words) [6] | MTT, toxicity by biotransformation [7] [µM] | anti-viral effect, production of viral particles / replication in CEM cells (in words) [8] | IC50 [9] [nM] | IC50 [10] [nM] | IC50 [11] [nM] |
| --- | --- | --- | --- | --- | --- | --- | --- | --- | --- | --- | --- | --- | --- | --- |
| O=C(O)c1ccc2ccc(/C=C/c3ccc(O)c(O)c3)nc2c1O [Compound 1, 8-hydroxy-2-[2-[(3,4-dihydroxyphenyl)ethenyl]]7-quinoline carboxylic acid] | slight inhibition | No other significant effect | > 100000 | strongly inhibited | inhibit the three activites | 4000 | >100 | devoid of toxicity | no reverse transcription inhibition | >100 |  |  |  |  |
| O=C([O-])c1ccc2ccc(C=Cc3ccc(O)c(O)c3)nc2c1O.[Na+] [Compound 2, sodium salt of 8-hydroxy-2-[2-[(3,4-dihydroxyphenyl)ethenyl]]7-quinoline-carboxylic acid] |  |  |  |  |  |  |  |  |  |  | blocks the production of viral particules; also recorded: same anti-viral effect |  |  |  |
| O=C(O)c1ccc2ccc(/C=C/c3cc(O)c(O)c(O)c3)nc2c1O [Compound 3, 8-hydroxy-2-[2-[(3.4,5-trihydroxyphenyl)ethenyl]]7-quinoline carboxylic acid] |  |  |  |  | inhibit the three activites |  |  |  |  |  |  | 310 | 320 | 56 |
